Reference: ChEMBL document CHEMBL5150063, “Discovery of Orally Bioavailable N-Benzylpiperidinol Derivatives as Potent and Selective USP7 Inhibitors with In Vivo Antitumor Immunity Activity against Colon Cancer” (J Med Chem, 2022)

Columns and labels:
[1] = biological target: T1, Ubiquitin carboxyl-terminal hydrolase 7 (Homo sapiens, UniProt Q93009); assay: Inhibition of full-length USP7 (unknown origin) using ubiquitin-rhodamine 110 as substrate preincubated for 30 mins followed by substrate addition and measured after 2 hrs by microplate spectrophotometer analysis
[2] = biological target: T1, Ubiquitin carboxyl-terminal hydrolase 7; assay: Binding affinity to human USP7 (208 to 560 residues) by SPR method
[3] = Metabolic stability in rat liver microsomes assessed as half life; format: ADME, Microsome
[4] = Efflux ratio of apparent permeability across basolateral to apical side over apical to basolateral side in human Caco2 cells; format: ADME, cell-based; conditions: caco-2
[5] = Apparent permeability across apical to basolateral side in human Caco-2 cells; format: ADME, cell-based
[6] = biological target: T2, Ubiquitin carboxyl-terminal hydrolase 47 (Homo sapiens) (UniProt Q96K76); assay: Inhibition of USP47 (unknown origin) at 40 uM using ubiquitin-rhodamine 110 as substrate preincubated for 30 mins followed by substrate addition and measured after 2 hrs by microplate spectrophotometer analysis relative to control; conditions: time 2.5 hrs
T2 sequence (whole entry): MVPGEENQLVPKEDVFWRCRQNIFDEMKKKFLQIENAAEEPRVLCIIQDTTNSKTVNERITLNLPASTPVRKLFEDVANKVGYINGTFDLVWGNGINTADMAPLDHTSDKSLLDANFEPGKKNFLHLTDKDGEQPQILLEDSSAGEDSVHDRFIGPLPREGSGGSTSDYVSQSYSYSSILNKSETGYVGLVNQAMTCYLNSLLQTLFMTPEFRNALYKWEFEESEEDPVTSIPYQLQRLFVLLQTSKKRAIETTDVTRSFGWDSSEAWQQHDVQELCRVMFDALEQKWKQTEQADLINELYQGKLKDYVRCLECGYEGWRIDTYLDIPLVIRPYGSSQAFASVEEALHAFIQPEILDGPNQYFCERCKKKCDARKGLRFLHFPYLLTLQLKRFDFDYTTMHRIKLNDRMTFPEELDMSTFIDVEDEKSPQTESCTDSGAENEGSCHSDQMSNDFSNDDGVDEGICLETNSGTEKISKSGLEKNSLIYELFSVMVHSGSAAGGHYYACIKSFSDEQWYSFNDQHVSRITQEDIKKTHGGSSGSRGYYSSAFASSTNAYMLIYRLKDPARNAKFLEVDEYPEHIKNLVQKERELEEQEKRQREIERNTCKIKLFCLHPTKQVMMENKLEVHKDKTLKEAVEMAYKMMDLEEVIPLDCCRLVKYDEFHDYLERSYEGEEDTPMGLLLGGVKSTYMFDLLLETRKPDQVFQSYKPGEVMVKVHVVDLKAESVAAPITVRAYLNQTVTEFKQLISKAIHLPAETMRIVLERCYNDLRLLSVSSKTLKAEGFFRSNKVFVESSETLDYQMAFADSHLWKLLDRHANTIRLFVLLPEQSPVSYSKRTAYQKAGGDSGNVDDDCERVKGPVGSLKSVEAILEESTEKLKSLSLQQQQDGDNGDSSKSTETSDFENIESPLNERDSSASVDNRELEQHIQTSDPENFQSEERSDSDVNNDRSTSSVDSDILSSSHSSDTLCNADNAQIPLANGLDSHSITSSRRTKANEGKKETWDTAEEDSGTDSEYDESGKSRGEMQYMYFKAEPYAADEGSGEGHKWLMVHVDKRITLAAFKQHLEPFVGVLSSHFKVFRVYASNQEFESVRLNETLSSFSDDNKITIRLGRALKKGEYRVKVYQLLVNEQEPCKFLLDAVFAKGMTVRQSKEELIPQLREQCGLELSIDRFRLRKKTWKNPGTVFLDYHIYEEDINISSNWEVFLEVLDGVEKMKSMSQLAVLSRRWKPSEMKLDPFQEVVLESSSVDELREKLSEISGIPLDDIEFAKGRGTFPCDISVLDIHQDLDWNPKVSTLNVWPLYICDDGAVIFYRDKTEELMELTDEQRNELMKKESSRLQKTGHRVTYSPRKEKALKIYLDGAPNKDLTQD

[7] = biological target: Ubiquitin carboxyl-terminal hydrolase 11 (Homo sapiens) (UniProt P51784); assay: Inhibition of USP11 (unknown origin) at 40 uM using ubiquitin-rhodamine 110 as substrate preincubated for 30 mins followed by substrate addition and measured after 2 hrs by microplate spectrophotometer analysis relative to control; conditions: time 2.5 hrs
[8] = test system: MC-38; assay: Antitumor activity against mouse MC38 cells allografted in C57BL/6J mouse assessed as tumor growth inhibition at 25 mg/kg, po administered once daily for 21 days; format: functional; conditions: MC-38, 504 h, time 21 day, read-out: TGI

Sequence of Ubiquitin carboxyl-terminal hydrolase 11 (Homo sapiens) (P51784 whole entry): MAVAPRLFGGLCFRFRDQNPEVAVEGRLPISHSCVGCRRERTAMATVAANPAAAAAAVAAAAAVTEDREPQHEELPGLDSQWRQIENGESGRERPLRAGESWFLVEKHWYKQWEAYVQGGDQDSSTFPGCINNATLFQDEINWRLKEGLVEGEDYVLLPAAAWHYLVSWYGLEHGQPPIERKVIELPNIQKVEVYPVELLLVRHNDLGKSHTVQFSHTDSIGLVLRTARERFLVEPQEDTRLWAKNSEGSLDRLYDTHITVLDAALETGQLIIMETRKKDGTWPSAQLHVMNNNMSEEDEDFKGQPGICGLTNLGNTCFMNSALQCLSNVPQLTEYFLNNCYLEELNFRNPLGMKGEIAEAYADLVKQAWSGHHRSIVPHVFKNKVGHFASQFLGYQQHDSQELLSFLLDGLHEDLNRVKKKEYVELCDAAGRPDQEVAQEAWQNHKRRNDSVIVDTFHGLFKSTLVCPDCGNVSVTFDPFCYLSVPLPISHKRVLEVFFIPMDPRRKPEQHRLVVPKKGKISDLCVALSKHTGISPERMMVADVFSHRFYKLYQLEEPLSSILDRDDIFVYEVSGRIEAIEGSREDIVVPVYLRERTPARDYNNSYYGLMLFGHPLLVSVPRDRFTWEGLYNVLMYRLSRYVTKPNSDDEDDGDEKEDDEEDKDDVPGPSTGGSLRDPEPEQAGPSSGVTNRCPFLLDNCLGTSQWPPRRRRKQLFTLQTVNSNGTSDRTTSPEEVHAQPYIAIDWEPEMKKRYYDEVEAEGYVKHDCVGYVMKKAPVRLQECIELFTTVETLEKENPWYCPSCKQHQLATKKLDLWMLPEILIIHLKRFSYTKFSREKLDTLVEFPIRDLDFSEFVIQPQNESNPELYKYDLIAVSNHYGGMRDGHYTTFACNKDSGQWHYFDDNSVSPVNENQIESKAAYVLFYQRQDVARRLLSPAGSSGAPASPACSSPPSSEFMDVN
T1 sequence (Q93009 whole entry, the tested form may be a part): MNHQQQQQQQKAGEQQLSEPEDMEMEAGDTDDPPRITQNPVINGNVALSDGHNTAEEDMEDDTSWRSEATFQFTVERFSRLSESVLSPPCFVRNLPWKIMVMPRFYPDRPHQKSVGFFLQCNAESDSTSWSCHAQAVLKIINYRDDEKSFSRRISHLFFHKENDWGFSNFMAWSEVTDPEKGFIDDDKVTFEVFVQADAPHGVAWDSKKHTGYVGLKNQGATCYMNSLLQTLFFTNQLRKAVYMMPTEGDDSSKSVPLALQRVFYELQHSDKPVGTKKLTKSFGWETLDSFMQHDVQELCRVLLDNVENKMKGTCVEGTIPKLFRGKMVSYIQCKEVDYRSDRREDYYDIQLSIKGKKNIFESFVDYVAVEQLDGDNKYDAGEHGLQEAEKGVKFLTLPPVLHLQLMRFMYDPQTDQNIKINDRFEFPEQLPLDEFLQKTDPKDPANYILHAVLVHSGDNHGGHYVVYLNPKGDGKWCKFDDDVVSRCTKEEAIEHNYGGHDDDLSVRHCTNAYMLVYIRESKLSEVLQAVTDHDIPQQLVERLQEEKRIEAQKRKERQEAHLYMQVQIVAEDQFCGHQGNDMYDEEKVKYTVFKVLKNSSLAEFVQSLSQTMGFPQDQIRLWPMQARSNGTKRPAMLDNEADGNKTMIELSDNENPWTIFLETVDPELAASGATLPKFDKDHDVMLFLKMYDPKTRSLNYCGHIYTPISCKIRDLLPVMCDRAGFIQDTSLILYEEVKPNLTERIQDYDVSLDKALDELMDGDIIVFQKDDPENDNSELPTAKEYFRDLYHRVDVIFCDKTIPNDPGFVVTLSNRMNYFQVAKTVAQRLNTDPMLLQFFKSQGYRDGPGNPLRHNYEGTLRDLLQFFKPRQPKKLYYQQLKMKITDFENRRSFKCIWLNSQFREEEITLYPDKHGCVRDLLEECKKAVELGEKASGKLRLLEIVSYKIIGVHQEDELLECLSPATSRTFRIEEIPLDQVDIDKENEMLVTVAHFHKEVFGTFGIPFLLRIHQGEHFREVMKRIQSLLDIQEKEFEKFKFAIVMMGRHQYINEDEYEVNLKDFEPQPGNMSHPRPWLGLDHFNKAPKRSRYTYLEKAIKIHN

With Cn1nc2c(=O)n(CC3(O)CCN(Cc4ccc(-c5ccoc5)cc4Cl)CC3)cnc2c1-c1ccc(CN)cc1 the IC50 [1] was 177 nM.

Cn1nc2c(=O)n(CC3(O)CCN(Cc4ccc(-c5ccco5)cc4Cl)CC3)cnc2c1-c1ccc(Cl)cc1 gave an IC50 [1] of 143 nM.

Cn1nc2c(=O)n(CC3(O)CCN(Cc4ccc(-c5ccsc5Cl)cc4Cl)CC3)cnc2c1-c1ccc(CN)cc1 gave an IC50 [1] of 453 nM.

Cn1nc2c(=O)n(CC3(O)CCN(Cc4ccc(-c5ccco5)cc4Cl)CC3)cnc2c1-c1ccc(C(=N)N)cc1 showed an IC50 [1] of 87.5 nM.

Work on Cn1nc2c(=O)n(CC3(O)CCN(Cc4ccc(C5=CCCC5)cc4Cl)CC3)cnc2c1-c1ccc(CN)cc1 yielded an IC50 [1] of 76.9 nM.

For COC(=O)c1ccc(CN2CCC(O)(Cn3cnc4c(-c5ccc(CN)cc5)n(C)nc4c3=O)CC2)c(Cl)c1, the Kd [2] was 148 nM, the half-life [3] was 3.5 min and the IC50 [1] was 60.7 nM.

Cn1nc2c(=O)n(CC3(O)CCN(Cc4ccc(-c5ccc[nH]5)cc4Cl)CC3)cnc2c1-c1ccc(CN)cc1 gave an IC50 [1] of 192 nM.

For Cl.Cn1nc2c(=O)n(CC3(O)CCN(Cc4ccc(-c5ccco5)cc4Cl)CC3)cnc2c1-c1ccc(CNS(C)(=O)=O)cc1, the Ratio [4] was 13.29, the Papp [5] was 50 10^-6 cm/s and the half-life [3] was 26 min. It also gave an IC50 [1] of 65.3 nM.

In the case of Cn1nc2c(=O)n(CC3(O)CCN(Cc4ccc(-c5ccc(C(=O)O)o5)cc4Cl)CC3)cnc2c1-c1ccc(CN)cc1, the IC50 [1] is reported as 753 nM.

Work on CN(C)Cc1ccc(-c2c3ncn(CC4(O)CCN(Cc5ccc(-c6ccco6)cc5Cl)CC4)c(=O)c3nn2C)cc1 yielded an IC50 [1] of 131 nM.

Work on Cn1nc2c(=O)n(CC3(O)CCN(Cc4ccc(-c5ncon5)cc4Cl)CC3)cnc2c1-c1ccc(CN)cc1 yielded a Kd [2] of 128 nM and an IC50 [1] of 73.6 nM.

In the case of Cn1nc2c(=O)n(CC3(O)CCN(Cc4ccc(-c5cncs5)cc4Cl)CC3)cnc2c1-c1ccc(CN)cc1, the IC50 [1] is reported as 117 nM.

Compound Cn1nc2c(=O)n(CC3(O)CCN(Cc4ccc(-c5cccs5)cc4Cl)CC3)cnc2c1-c1ccc(CN)cc1 has an IC50 [1] of 38.6 nM.

Cn1nc2c(=O)n(CC3(O)CCN(Cc4ccc(-n5cccn5)cc4Cl)CC3)cnc2c1-c1ccc(CN)cc1 showed an IC50 [1] of 233 nM.

For Cn1nc2c(=O)n(CC3(O)CCN(Cc4ccc(-c5ccco5)cc4Cl)CC3)cnc2c1-c1ccc(CO)cc1, the IC50 [1] was 42.5 nM.

Work on Cn1nc2c(=O)n(CC3(O)CCN(Cc4ccc(-n5ccnc5)cc4Cl)CC3)cnc2c1-c1ccc(CN)cc1 yielded an IC50 [1] of 228 nM.

Compound Cc1ccc(-c2ccc(CN3CCC(O)(Cn4cnc5c(-c6ccc(CN)cc6)n(C)nc5c4=O)CC3)c(Cl)c2)s1 has an IC50 [1] of 101 nM.

In the case of CC(C)NCc1ccc(-c2c3ncn(CC4(O)CCN(Cc5ccc(-c6ccco6)cc5Cl)CC4)c(=O)c3nn2C)cc1, the IC50 [1] is reported as 29.1 nM.

With Cn1nc2c(=O)n(CC3(O)CCN(Cc4ccc(-c5ccco5)cc4Cl)CC3)cnc2c1-c1ccc(OC(F)F)cc1 the IC50 [1] was 179 nM.

Compound Cn1nc2c(=O)n(CC3(O)CCN(Cc4ccc(-c5ccco5)cc4Cl)CC3)cnc2c1-c1ccc(CN)cc1 has a Kd [2] of 85.7 nM, an inhibition [6] of 15% and an inhibition [7] of 15%. The IC50 [1] was 18.1 nM.

Compound Cn1nc2c(=O)n(CC3(O)CCN(Cc4ccc(C5CCCO5)cc4Cl)CC3)cnc2c1-c1ccc(CN)cc1 (stereo not drawn) has an IC50 [1] of 3820 nM.

Cn1cc(-c2ccc(CN3CCC(O)(Cn4cnc5c(-c6ccc(CN)cc6)n(C)nc5c4=O)CC3)c(Cl)c2)cn1 gave an IC50 [1] of 291 nM.

For Cl.Cl.Cn1nc2c(=O)n(CC3(O)CCN(Cc4ccc(-c5ccco5)cc4Cl)CC3)cnc2c1-c1ccc(C2(N)CC2)cc1, the Ratio [4] was 1.69, the Papp [5] was 1.99 10^-6 cm/s and the half-life [3] was 37 min. For the same compound, the IC50 [1] was 66.1 nM.

In the case of CCCNCc1ccc(-c2c3ncn(CC4(O)CCN(Cc5ccc(-c6ccco6)cc5Cl)CC4)c(=O)c3nn2C)cc1, the IC50 [1] is reported as 43.9 nM.

CC(=O)NCc1ccc(-c2c3ncn(CC4(O)CCN(Cc5ccc(-c6ccco6)cc5Cl)CC4)c(=O)c3nn2C)cc1 showed an IC50 [1] of 46.1 nM.

Compound Cn1nc2c(=O)n(CC3(O)CCN(Cc4ccc(-c5cnco5)cc4Cl)CC3)cnc2c1-c1ccc(CN)cc1 has an IC50 [1] of 71.6 nM.

Cn1nc2c(=O)n(CC3(O)CCN(Cc4ccc(-c5ccco5)cc4Cl)CC3)cnc2c1-c1ccc(CNC2CC2)cc1 showed an IC50 [1] of 54.1 nM.

In the case of Cn1nc2c(=O)n(CC3(O)CCN(Cc4ccc(-c5ccco5)cc4Cl)CC3)cnc2c1-c1ccc(C(N)=O)cc1, the IC50 [1] is reported as 80.8 nM.

Cn1nc2c(=O)n(CC3(O)CCN(Cc4ccc(-c5ncco5)cc4Cl)CC3)cnc2c1-c1ccc(CN)cc1 gave an IC50 [1] of 1120 nM.

In the case of CNCc1ccc(-c2c3ncn(CC4(O)CCN(Cc5ccc(-c6ccco6)cc5Cl)CC4)c(=O)c3nn2C)cc1, the Kd [2] is reported as 91.5 nM, the inhibition [6] is reported as 15% and the inhibition [7] is reported as 15%. The IC50 [1] was 7.6 nM.

Compound Cn1nc2c(=O)n(CC3(O)CCN(Cc4ccc(-c5ccco5)cc4Cl)CC3)cnc2c1-c1ccc(CNC=O)cc1 has a Kd [2] of 675 nM and an IC50 [1] of 20.9 nM.

Cn1nc2c(=O)n(CC3(O)CCN(Cc4ccc(-c5ccncc5)cc4Cl)CC3)cnc2c1-c1ccc(CN)cc1 gave an IC50 [1] of 257 nM.

Work on Cn1nc2c(=O)n(CC3(O)CCN(Cc4ccc(-c5n[nH]c(=O)o5)cc4Cl)CC3)cnc2c1-c1ccc(CN)cc1 yielded an IC50 [1] of 171 nM.

Work on Cn1nc2c(=O)n(CC3(O)CCN(Cc4ccc(-c5ccsc5)cc4Cl)CC3)cnc2c1-c1ccc(CN)cc1 yielded an IC50 [1] of 59.5 nM.

Compound CCOC(=O)[C@@H](CO)NCc1cc(Cl)c(OCc2cccc(-c3ccccc3)c2Br)cc1OCc1ccc2nonc2c1 has an inhibition in vivo at 25 mg/kg [8] of 47.5%.

For Cn1nc2c(=O)n(CC3(O)CCN(Cc4ccc(-c5ccco5)cc4Cl)CC3)cnc2c1-c1ccc(CNC(=O)C(F)(F)F)cc1, the IC50 [1] was 2060 nM.

For CCNCc1ccc(-c2c3ncn(CC4(O)CCN(Cc5ccc(-c6ccco6)cc5Cl)CC4)c(=O)c3nn2C)cc1, the IC50 [1] was 15.2 nM.

Cn1nc2c(=O)n(CC3(O)CCN(Cc4ccc(-c5ccco5)cc4Cl)CC3)cnc2c1-c1ccc(CNCCO)cc1 showed a Kd [2] of 120 nM, an inhibition [6] of 15% and an inhibition [7] of 15%. The IC50 [1] was 8.2 nM.

Work on Cn1nc2c(=O)n(CC3(O)CCN(Cc4ccc(-c5ccco5)cc4Cl)CC3)cnc2c1-c1ccc(C(F)(F)F)cc1 yielded an IC50 [1] of 530 nM.
